From patent EP0355612B1, “Furylthiazole derivatives, processes for the preparation thereof and pharmaceutical composition comprising the same” (FUJISAWA PHARMACEUTICAL CO., LTD., priority 1988, dated 1990)

What was measured:
H₂-receptor = target: T1, H₂-receptor (Cavia porcellus, UniProt P47747); experiment: Test B: H₂-receptor antagonism in isolated guinea-pig atrium; type: cell-based; conditions: test compound 1 x 10⁻⁶ g/ml; histamine (1 x 10⁻⁶ g/ml)-induced increase in beating rate, before and 30 minutes after dosing
T1 construct: from tissue; host or cells: isolated guinea-pig atrial strip
Method: Test B (H₂-receptor antagonism in isolated guinea-pig atrium):
The atrial strip isolated from guinea-pig was suspended under an initial tension 0.3 to 0.6 g in an organ bath containing Tyrode solution at 30°C, aerated 95%O₂-5%CO₂ gas. The beating rate and amplitude of contraction of the atrium were recorded by means of a transducer and a polygraph. Histamine (1 x 10⁻⁶ g/ml) was added to the bathing fluid and the increase in beating rate after dosing was measured. Addition of test compounds (1 x 10⁻⁶ g/ml) was made 30 minutes after washing out histamine. Inhibitory effect of test compound was calculated by comparing histamine-induced increases in beating rate before and 30 minutes after dosing with the test compounds.

male Sprague-Dawley rats = experiment: Test C: Inhibition of stress ulcer (restraint and water immersion); type: in vivo; conditions: mean area of ulcers vs control animals; test compound 32 mg/kg orally; seven hours immobilized in water bath at 22°C
Method: Test C (Inhibition of stress ulcer):
Five male Sprague-Dawley rats, aged 7 weeks and weighing about 200 g were used per group for the study on stress ulcer after the fast for 24 hours. Each animal was immobilized in a restrain cage and immersed to a level of the xiphoid in a water bath kept 22°C. Each of the test compounds (32 mg/kg) suspended in 0.1% methylcellulose solution was administered orally just before the immobilization. Seven hours later, the animals were sacrificed and their stomachs were removed. The stomach was then fixed with 2% formalin. The area of ulcers was measured for each animal, and percentage of inhibition was calculated by comparing the mean area of ulcers (mm²) in the test animals with that in the control animals.

[1] = system: lumen perfused stomach in anesthetized rats; experiment: Test D: Gastric secretion from lumen perfused stomach in anesthetized rats (histamine-stimulated); type: in vivo, Sprague-Dawley rats; conditions: maximal inhibition of acid output; histamine 3 mg/kg/hr intravenous infusion; test compound 1 mg/kg intravenously
Method: Test D (Gastric secretion from lumen perfused stomach in anesthetized rats):
Male Sprague-Dawley rats weighing about 250 g were used. Rats were deprived of food but allowed free access to water for 24 hours. The animals were anesthetized with 1.25 g/kg urethane intraperitoneally. The abdomen was opened and the gastric lumen was perfused with saline throughout the experiment. The perfusate was titrated by an autotitrator with 25 mM sodium hydroxide as a titrant. Gastric secretion was stimulated by intravenous infusion with histamine (3 mg/kg/hr). After reaching plateau, test compound (1 mg/kg) was given intravenously. Drug effect was expressed as maximal inhibition by acid output.

T1 sequence (P47747 whole entry): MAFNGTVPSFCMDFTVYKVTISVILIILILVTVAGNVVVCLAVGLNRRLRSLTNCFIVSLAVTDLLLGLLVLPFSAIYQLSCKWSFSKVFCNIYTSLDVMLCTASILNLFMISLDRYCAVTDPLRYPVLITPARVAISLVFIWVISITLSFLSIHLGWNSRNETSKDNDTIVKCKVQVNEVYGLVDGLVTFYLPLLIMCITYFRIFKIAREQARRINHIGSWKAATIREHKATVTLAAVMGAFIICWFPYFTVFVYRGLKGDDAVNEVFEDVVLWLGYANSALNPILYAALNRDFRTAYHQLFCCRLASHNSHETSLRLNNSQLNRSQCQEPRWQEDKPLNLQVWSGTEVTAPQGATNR

Row | SMILES | H₂ Antagonism (%) (H₂-receptor) | Inhibition (%) (male Sprague-Dawley rats) | Inhibition (%) [1]
1 | CNC(=O)NCc1ccc(-c2csc(N=C(N)N)n2)o1 [Test Compound (c)] | 89.1% |  | 
2 | CNC(=NC#N)NCc1ccc(-c2csc(N=C(N)N)n2)o1 [Test Compound (b), 4-[5-(2-Cyano-3-methylguanidino)methylfuran-2-yl]-2-(diaminomethyleneamino)thiazole] | 90.7% |  | 
3 | NC(N)=Nc1nc(-c2ccc(CC(N)=NS(N)(=O)=O)o2)cs1 [Test Compound (d), 4-[5-(2-Amino-2-aminosulfonyliminoethyl)furan-2-yl]-2-(diaminomethyleneamino)thiazole] |  | 86.6% | 99%
